For data set [1], the system named is cervical cancer cell line (HeLa). It counts as cell-based, human. As to conditions: MTT assay, 6000 cells per well, peptides 0.5-128 μM for 24 h, triplicate, absorbance 570 and 630 nm; read-out: IC50 (μM) HeLa. An excerpt: (§1) Five peptides were randomly selected from the candidate ACPs and synthesized by Changzhou Kanglong Biotech Ltd (Changzhou, China). using 9-fuorenylmethoxy carbonyl (FMOC) solid phase synthesis technology. The synthetic peptide was identified by mass spectrometry (MS), and the purity >95% by high performance liquid chromatography (HPLC). Human breast cancer cell line (MCF7), lung cancer cell line (A549), cervical cancer cell line (HeLa), colorectal adenocarcinoma cell line (LoVo) and human embryonic kidney cells (293T) were preserved in our laboratory. At 37 °C under 5/95% CO2/air condition, all cell lines were cultured in Dulbecco’s modified Eagle medium (DMEM) supplemented with 10% (v/v) fetal bovine serum (FBS, Gibco, Carlsbad, CA, USA) and 1% (v/v) penicillin/streptomycin (Sangon Biotech, Shanghai, China).
(§2) Human tumor cell lines MCF7, A549, HeLa and LoVo were used as experimental materials to detect the anticancer activity of peptides by MTT assay. In addition, human embryonic kidney cells 293T were also included in the experiment to examine the safety of the peptide against non-cancerous cells. […] Untreated cells as negative control group incubated with corresponding medium for 24 h. Subsequently, 10 uL, 5 mg/mL MTT (Sangon Biotech, Shanghai, China) solution was added to each well and incubated for 4 h at 37 °C. After the medium was discarded, 150 μL DMSO was added to each well for 10 min to dissolve formazan crystals. Absorbance was measured at 570 and 630 nm using a multiwall plate reader and the inhibition rate was expressed as the mean ± standard deviation (SD) of the triplicate data.

For data set [2], the system named is colorectal adenocarcinoma cell line (LoVo). The format is cell-based, human. Particulars: MTT assay, 6000 cells per well, peptides 0.5-128 μM for 24 h, triplicate, absorbance 570 and 630 nm; read-out: IC50 (μM) LoVo.
Description: as §1, §2

Data set [3] deals with lung cancer cell line (A549). It counts as cell-based, human.
Description: as §1, §2

For data set [4], the system named is Human breast cancer cell line (MCF7). It counts as cell-based. As to conditions: MTT assay, 6000 cells per well, peptides 0.5-128 μM for 24 h, triplicate, absorbance 570 and 630 nm; read-out: IC50 (μM) MCF7.
Description: as §1, §2
In general terms: Tetrazolium assays rely on reduction of a dye to a coloured formazan, in cell work by metabolically active cells.

The test system of data set [5] is human embryonic kidney cells (293T). Description: MTT assay on non-cancerous cells, 293T. It counts as cell-based.
Description: as §1, §2

Data set [6] deals with 2% sheep red blood cells (SRBC). Description: Hemolysis assay. It counts as cell-based. Here is the method:
The 2% sheep red blood cells (SRBC) were purchased from Nanjing Senbeijia Biological Technology Co., Ltd (Nangjing, China). A total of 4 mL of 2% SRBC was taken, rinsed twice with 4 mL of PBS by centrifugation for 5 min at 3000 rpm and the precipitates were resuspended in 4 mL of PBS. We added 100 μL of 2% SRBC to each well of the 96-well plate and then added 100 μL peptide solutions of different concentrations (2, 4, 8, 16, 32, 64, 128 and 256 μM) in triplicate at 37 °C for 1 h. 100 μL of PBS buffer and 100 uL of Triton X-100 0.1% (w/v) were mixed with SRBC as negative and positive controls, respectively. All samples were centrifuged at 3000 rpm for 5 min, 100 μL supernatant was collected and transferred to a new 96-well plate, and its absorbance was measured at 540 nm. The calculation formula of hemolysis rate is as follows. (5) % Hemolysis=absorbancesample-absorbancenegative/absorbancepositive-absorbancenegative×100

Bridge positions count the residues as written; N and C are the ends. Peptide text beside a SMILES is read from it.

With `CC[C@H](C)[C@H](NC(=O)[C@H](CC(C)C)NC(=O)[C@H](CC(C)C)NC(=O)[C@H](CC(=O)O)NC(=O)[C@H](CCCCN)NC(=O)[C@@H](NC(=O)[C@H](C)NC(=O)CNC(=O)[C@H](CC(C)C)NC(=O)[C@@H](NC(=O)CN)C(C)C)C(C)C)C(=O)NCC(=O)N[C@@H](C)C(=O)NCC(=O)N[C@@H](CCCCN)C(=O)N[C@@H](CO)C(=O)N[C@@H](C)C(=O)N[C@@H](C)C(=O)N[C@@H](CCC(N)=O)C(=O)N[C@@H](CO)C(=O)N[C@H](C(=O)N[C@@H](CC(C)C)C(=O)N[C@@H](CCCCN)C(=O)N[C@H](C(=O)N[C@@H](CC(C)C)C(=O)N[C@@H](CO)C(=O)N[C@H]1CSSC[C@@H](C(=O)O)NC(=O)[C@H](CC(=O)O)NC(=O)[C@H](CC(N)=O)NC(=O)[C@H](CO)NC(=O)[C@H](CC(C)C)NC(=O)[C@H](CCCCN)NC1=O)[C@@H](C)O)C(C)C` [Odorranain-C1] (H-GVLGAVKDLLIGAGKSAAQSVLKTLSCKLSNDC-OH; disulfide 27-33), the IC50 in data set [1] was 52.8 µM; in data set [2], 55.2 µM; in data set [3] (MTT assay, 6000 cells per well, peptides 0.5-128 μM for 24 h, triplicate, absorbance 570 and 630 nm, read-out: IC50 (μM) A549) it was 27.3 µM; in data set [4], 41.2 µM; in data set [5] (non-cancerous cells, MTT assay, 6000 cells per well, peptides 0.5-128 μM for 24 h, triplicate, absorbance 570 and 630 nm, read-out: IC50 (μM) 293T), 48.7 µM. Besides, the “killing effects on lung cancer cell A549 (in words)” value in data set [3] (MTT, 24 h, anticancer activity when IC50 less than 50 μM) is recorded as “effective killing effects”. Besides, the “toxicity to 293T cells (in words)” value in data set [5] (low toxicity when the IC50 value exceeded 50 μM, MTT, 24 h) is listed as “certain toxicity”. Besides, the “hemolysis (in words)” value in data set [6] (hemolytic rate of 100 μM peptides more than 10% as the classification standard, 2% sheep erythrocytes) is reported as “no hemolysis”. Further, the “Hemolytic effect on 2% sheep erythrocytes, peptide concentration 2 μM” value in data set [6] (peptide 2 μM, 2% SRBC in PBS, 37 °C, 1 h, absorbance 540 nm, triplicate) was “− (The “−” symbol indicates the hemolysis rate of less than 10% at peptides concentration of 100 μM)”. In data set [6] (peptide 4 μM, 2% SRBC in PBS, 37 °C, 1 h, absorbance 540 nm, triplicate), the “Hemolytic effect on 2% sheep erythrocytes, peptide concentration 4 μM” value is on record as “− (The “−” symbol indicates the hemolysis rate of less than 10% at peptides concentration of 100 μM)”. Besides, in data set [6] (peptide 8 μM, 2% SRBC in PBS, 37 °C, 1 h, absorbance 540 nm, triplicate), the “Hemolytic effect on 2% sheep erythrocytes, peptide concentration 8 μM” value is “− (The “−” symbol indicates the hemolysis rate of less than 10% at peptides concentration of 100 μM)”. In addition, in data set [6] (peptide 16 μM, 2% SRBC in PBS, 37 °C, 1 h, absorbance 540 nm, triplicate), the “Hemolytic effect on 2% sheep erythrocytes, peptide concentration 16 μM” value was “− (The “−” symbol indicates the hemolysis rate of less than 10% at peptides concentration of 100 μM)”. In addition, in data set [6] (peptide 32 μM, 2% SRBC in PBS, 37 °C, 1 h, absorbance 540 nm, triplicate), the “Hemolytic effect on 2% sheep erythrocytes, peptide concentration 32 μM” value was “− (The “−” symbol indicates the hemolysis rate of less than 10% at peptides concentration of 100 μM)”. Further, the “Hemolytic effect on 2% sheep erythrocytes, peptide concentration 64 μM” value in data set [6] (peptide 64 μM, 2% SRBC in PBS, 37 °C, 1 h, absorbance 540 nm, triplicate) was “− (The “−” symbol indicates the hemolysis rate of less than 10% at peptides concentration of 100 μM)”. Moreover, in data set [6] (peptide 128 μM, 2% SRBC in PBS, 37 °C, 1 h, absorbance 540 nm, triplicate), the “Hemolytic effect on 2% sheep erythrocytes, peptide concentration 128 μM” value was “− (The “−” symbol indicates the hemolysis rate of less than 10% at peptides concentration of 100 μM)”. Further, the “Hemolytic effect on 2% sheep erythrocytes, peptide concentration 256 μM” value in data set [6] (peptide 256 μM, 2% SRBC in PBS, 37 °C, 1 h, absorbance 540 nm, triplicate) is “− (The “−” symbol indicates the hemolysis rate of less than 10% at peptides concentration of 100 μM)”.

As usually defined, the IC50 is the point on the concentration scale where inhibition reaches its midpoint.

Values taken from PMC8198792, “Prediction of Anticancer Peptides with High Efficacy and Low Toxicity by Hybrid Model Based on 3D Structure of Peptides” (International Journal of Molecular Sciences, 2021).
